This note sets out measurements from ChEMBL document CHEMBL5096228, “Targeting Vancomycin-Resistant Enterococci (VRE) Infections and Van Operon-Mediated Drug Resistance Using Dimeric Cholic Acid-Peptide Conjugates” (J Med Chem, 2022).

As a reminder, the MIC99 is an inhibitory concentration at the 99% level, which refers to growth in some studies and to a panel of isolates in others. A word on the IC50: it is the concentration needed to halve the response being measured.

Converted amounts (≈) assume the structure as drawn. Positions of bridges follow the written chain, without caps; N, C: chain ends. Non-standard residues stand in square brackets, D forms with d. Residues, ends and D or L forms follow the SMILES beside them. *: point of attachment. X1 = CC[C@H](C)CCCCC(=O)*; Dab = NCC[C@H](N)C(=O)O Some results are limits rather than exact numbers.

Series [1] has as its system Staphylococcus aureus. Briefly: Antimicrobial activity against Staphylococcus aureus ATCC 25923 assessed as growth inhibition after 14 to 16 hrs by CLSI based broth dilution method. It counts as functional. To be noted: time 14-16 hrs. Background: Broth dilution looks for growth in wells or tubes with falling amounts of substance.
Series [2] concerns Enterococcus faecium. Briefly: Antimicrobial activity against Enterococcus faecium assessed as growth inhibition after 14 to 16 hrs by CLSI based broth dilution method. The series is classed as functional. The following applies: time 14-16 hrs.
Series [3] deals with Staphylococcus aureus. Briefly: Antimicrobial activity against methicillin-resistant Staphylococcus aureus ATCC 33591 assessed as growth inhibition after 14 to 16 hrs by CLSI based broth dilution method. The following applies: time 14-16 hrs. The series is classed as functional.
Series [4] has as its system Enterococcus faecium. Briefly: Antimicrobial activity against Vancomycin-resistant Enterococcus faecium ATCC 51559 assessed as growth inhibition after 14 to 16 hrs by CLSI based broth dilution method. The series is classed as functional. The following applies: time 14-16 hrs.
Series [5] can be described thus: Cytotoxicity against mouse LLC cells assessed as reduction in cell viability. The series is classed as toxicity, cell-based. The following applies: LLC (3LL) cells.
Series [6] is described as follows: Hemolytic activity in human RBC at 50 ug/ml. It counts as toxicity, cell-based, Erythrocyte. To be noted: red blood cells (erythrocytes), at 50 µg/mL, read-out: Activity.

Consider `CC(C)C(N)C(=O)NCC(=O)O[C@@H]1CC[C@@]2(C)[C@@H](C1)C[C@@H](OC(=O)CNC(=O)C(N)C(C)C)[C@@H]1[C@@H]2C[C@H](OC(=O)CNC(=O)C(N)C(C)C)[C@]2(C)[C@@H]([C@H](C)CCC(=O)OCc3ccccc3)CC[C@@H]12` (some centres not stated), for which the MIC99 in the series with Staphylococcus aureus [1] was 16 µg/mL (≈ 16.5 µM); in the series on Enterococcus faecium [2] it was 8 µg/mL (≈ 8.27 µM); with Staphylococcus aureus [3] it was 4 µg/mL (≈ 4.14 µM); with Enterococcus faecium [4] it was 2 µg/mL (≈ 2.07 µM). The IC50 in series [5] was determined as 40 µg/mL. Also, the hemolysis at 50 ug/ml in series [6] was found to be 95%.

As for `C[C@H](CCC(=O)NCc1cn(CCCCCCn2cc(CNC(=O)CC[C@@H](C)[C@H]3CC[C@H]4[C@@H]5[C@H](OC(=O)CN)C[C@@H]6C[C@H](OC(=O)CN)CC[C@]6(C)[C@H]5C[C@H](OC(=O)CN)[C@]34C)nn2)nn1)[C@H]1CC[C@H]2[C@@H]3[C@H](OC(=O)CN)C[C@@H]4C[C@H](OC(=O)CN)CC[C@]4(C)[C@H]3C[C@H](OC(=O)CN)[C@]12C.Cl.Cl.Cl.Cl.Cl.Cl`, the MIC99 in the series on Staphylococcus aureus [1] amounted to 128 µg/mL; in the series with Enterococcus faecium [2], 16 µg/mL; with Staphylococcus aureus [3], 32 µg/mL; with Enterococcus faecium [4], 8 µg/mL. Also, in series [5], the IC50 stood at 66 µg/mL. Moreover, the hemolysis at 50 ug/ml in series [6] is 58%.

On to `C[C@H](CCC(=O)NCc1cn(CCCn2cc(CNC(=O)CC[C@@H](C)[C@H]3CC[C@H]4[C@@H]5[C@H](OC(=O)CN)C[C@@H]6C[C@H](OC(=O)CN)CC[C@]6(C)[C@H]5C[C@H](OC(=O)CN)[C@]34C)nn2)nn1)[C@H]1CC[C@H]2[C@@H]3[C@H](OC(=O)CN)C[C@@H]4C[C@H](OC(=O)CN)CC[C@]4(C)[C@H]3C[C@H](OC(=O)CN)[C@]12C.Cl.Cl.Cl.Cl.Cl.Cl`, for which the MIC99 is 128 µg/mL in the series on Staphylococcus aureus [1], 32 µg/mL in the series on Enterococcus faecium [2], 32 µg/mL in the series on Staphylococcus aureus [3] and 16 µg/mL with Enterococcus faecium [4]. For the same compound, in series [5], the half-inhibitory concentration (IC50) was 131 µg/mL. The hemolysis at 50 ug/ml in series [6] turned out to be 9%.

For `C[C@H](CCC(=O)NCc1cn(CCCCCn2cc(CNC(=O)CC[C@@H](C)[C@H]3CC[C@H]4[C@@H]5[C@H](OC(=O)CN)C[C@@H]6C[C@H](OC(=O)CN)CC[C@]6(C)[C@H]5C[C@H](OC(=O)CN)[C@]34C)nn2)nn1)[C@H]1CC[C@H]2[C@@H]3[C@H](OC(=O)CN)C[C@@H]4C[C@H](OC(=O)CN)CC[C@]4(C)[C@H]3C[C@H](OC(=O)CN)[C@]12C.Cl.Cl.Cl.Cl.Cl.Cl`, the MIC99 turned out to be 128 µg/mL with Staphylococcus aureus [1], 32 µg/mL in the series with Enterococcus faecium [2], 64 µg/mL in the series with Staphylococcus aureus [3] and 16 µg/mL in the series on Enterococcus faecium [4]. The 50% inhibitory concentration (IC50) in series [5] worked out at 153 µg/mL. The hemolysis at 50 ug/ml in series [6] came out at 10%.

As to `C[C@H](CCC(=O)NCc1cn(CCCCn2cc(CNC(=O)CC[C@@H](C)[C@H]3CC[C@H]4[C@@H]5[C@H](OC(=O)CN)C[C@@H]6C[C@H](OC(=O)CN)CC[C@]6(C)[C@H]5C[C@H](OC(=O)CN)[C@]34C)nn2)nn1)[C@H]1CC[C@H]2[C@@H]3[C@H](OC(=O)CN)C[C@@H]4C[C@H](OC(=O)CN)CC[C@]4(C)[C@H]3C[C@H](OC(=O)CN)[C@]12C.Cl.Cl.Cl.Cl.Cl.Cl`, the MIC99 with Staphylococcus aureus [1] is 128 µg/mL; in the series with Enterococcus faecium [2] it was 64 µg/mL; in the series on Staphylococcus aureus [3] it was 64 µg/mL; in the series with Enterococcus faecium [4], 32 µg/mL. In addition, the 50% inhibitory concentration (IC50) in series [5] was found to be 211 µg/mL. The hemolysis at 50 ug/ml in series [6] came to 2%.

`CC(C)C(N)C(=O)NCC(=O)O[C@@H]1CC[C@@]2(C)[C@@H](C1)C[C@@H](OC(=O)CNC(=O)C(N)C(C)C)[C@@H]1[C@@H]2C[C@H](OC(=O)CNC(=O)C(N)C(C)C)[C@]2(C)[C@@H]([C@H](C)CCC(=O)NCc3cn(CCCCCCn4cc(CNC(=O)CC[C@@H](C)[C@H]5CC[C@H]6[C@@H]7[C@H](OC(=O)CNC(=O)C(N)C(C)C)C[C@@H]8C[C@H](OC(=O)CNC(=O)C(N)C(C)C)CC[C@]8(C)[C@H]7C[C@H](OC(=O)CNC(=O)C(N)C(C)C)[C@]56C)nn4)nn3)CC[C@@H]12.Cl.Cl.Cl.Cl.Cl.Cl` (some centres not stated): the MIC99 was found to be 128 µg/mL with Staphylococcus aureus [1], 16 µg/mL in the series with Enterococcus faecium [2], 32 µg/mL with Staphylococcus aureus [3] and 4 µg/mL with Enterococcus faecium [4]. Further, the IC50 in series [5] is 69 µg/mL. In series [6], the hemolysis at 50 ug/ml is 57%.

For `CC(C)C(N)C(=O)NCC(=O)O[C@@H]1CC[C@@]2(C)[C@@H](C1)C[C@@H](OC(=O)CNC(=O)C(N)C(C)C)[C@@H]1[C@@H]2C[C@H](OC(=O)CNC(=O)C(N)C(C)C)[C@]2(C)[C@@H]([C@H](C)CCC(=O)NCc3cn(CCCCn4cc(CNC(=O)CC[C@@H](C)[C@H]5CC[C@H]6[C@@H]7[C@H](OC(=O)CNC(=O)C(N)C(C)C)C[C@@H]8C[C@H](OC(=O)CNC(=O)C(N)C(C)C)CC[C@]8(C)[C@H]7C[C@H](OC(=O)CNC(=O)C(N)C(C)C)[C@]56C)nn4)nn3)CC[C@@H]12.Cl.Cl.Cl.Cl.Cl.Cl` (some centres not stated), the MIC99 in the series with Staphylococcus aureus [1] amounted to 128 µg/mL; in the series on Enterococcus faecium [2], 8 µg/mL; in the series on Staphylococcus aureus [3] it was 32 µg/mL; with Enterococcus faecium [4], 4 µg/mL. Also, in series [5], the IC50 was found to be 52 µg/mL. Further, the hemolysis at 50 ug/ml in series [6] was 50%.

For `CC(C)C(N)C(=O)NCC(=O)O[C@@H]1CC[C@@]2(C)[C@@H](C1)C[C@@H](OC(=O)CNC(=O)C(N)C(C)C)[C@@H]1[C@@H]2C[C@H](OC(=O)CNC(=O)C(N)C(C)C)[C@]2(C)[C@@H]([C@H](C)CCC(=O)NCc3cn(CCCCCn4cc(CNC(=O)CC[C@@H](C)[C@H]5CC[C@H]6[C@@H]7[C@H](OC(=O)CNC(=O)C(N)C(C)C)C[C@@H]8C[C@H](OC(=O)CNC(=O)C(N)C(C)C)CC[C@]8(C)[C@H]7C[C@H](OC(=O)CNC(=O)C(N)C(C)C)[C@]56C)nn4)nn3)CC[C@@H]12.Cl.Cl.Cl.Cl.Cl.Cl` (some centres not stated), the MIC99 with Staphylococcus aureus [1] stood at 128 µg/mL; in the series on Enterococcus faecium [2] it was 16 µg/mL; in the series on Staphylococcus aureus [3], 32 µg/mL; in the series on Enterococcus faecium [4] it was 4 µg/mL. Further, the IC50 in series [5] is 96 µg/mL. The hemolysis at 50 ug/ml in series [6] worked out at 36%.

Consider `CC[C@H](C)CCCCC(=O)N[C@@H](CCN)C(=O)N[C@H](C(=O)N[C@@H](CCN)C(=O)N[C@H]1CCNC(=O)[C@H]([C@@H](C)O)NC(=O)[C@H](CCN)NC(=O)[C@H](CCN)NC(=O)[C@H](CC(C)C)NC(=O)[C@@H](Cc2ccccc2)NC(=O)[C@H](CCN)NC1=O)[C@@H](C)O` (X1-[Dab]T[Dab][Dab][Dab][dF]L[Dab][Dab]T; lactam 4-C), for which the MIC99 in the series on Staphylococcus aureus [1] is 128 µg/mL (≈ 106 µM); in the series on Enterococcus faecium [2] it was more than 128 µg/mL; in the series on Staphylococcus aureus [3] it was 32 µg/mL (≈ 26.6 µM); in the series with Enterococcus faecium [4], more than 128 µg/mL.

Turning to `NC[C@@H]1O[C@H](O[C@H]2[C@@H](O)[C@H](O[C@@H]3[C@@H](O)[C@H](N)C[C@H](N)[C@H]3O[C@H]3O[C@H](CN)[C@@H](O)[C@H](O)[C@H]3N)O[C@@H]2CO)[C@H](N)[C@@H](O)[C@@H]1O` [FRAMYCETIN], the MIC99 was 16 µg/mL (≈ 26 µM) in the series with Staphylococcus aureus [1], 16 µg/mL (≈ 26 µM) in the series on Enterococcus faecium [2], more than 128 µg/mL in the series on Staphylococcus aureus [3] and more than 128 µg/mL in the series with Enterococcus faecium [4]. In series [5], the half-inhibitory concentration (IC50) is more than 1000 µM.
